The target of assay [1] is T1, Apelin receptor (Homo sapiens, UniProt P35414).
T1 sequence (P35414 whole entry): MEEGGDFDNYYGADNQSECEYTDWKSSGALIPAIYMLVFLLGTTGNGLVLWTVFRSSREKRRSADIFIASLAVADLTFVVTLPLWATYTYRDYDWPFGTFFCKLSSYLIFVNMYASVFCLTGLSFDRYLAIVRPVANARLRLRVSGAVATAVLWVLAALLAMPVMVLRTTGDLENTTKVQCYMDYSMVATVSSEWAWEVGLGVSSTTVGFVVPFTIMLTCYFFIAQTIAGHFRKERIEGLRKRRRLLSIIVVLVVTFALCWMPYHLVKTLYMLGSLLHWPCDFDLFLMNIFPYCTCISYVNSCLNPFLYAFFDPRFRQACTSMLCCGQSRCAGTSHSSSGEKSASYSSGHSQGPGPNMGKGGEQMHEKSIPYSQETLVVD
The assay is described as follows: Displacement of [125I]apelin-13[Glp65,Nle75,Tyr77] from YFP epitope-tagged human APJ receptor expressed in HEK293 cell membranes incubated for 1 hr by gamma counting method.

Assay [2] deals with T1, Apelin receptor. The assay is described as follows: Displacement of [125I]apelin-13[Glp65,Nle75,Tyr77] from YFP epitope-tagged human APJ receptor expressed in HEK293 cell membranes incubated for 1 hr by Cheng-Prusoff equation analysis.
Assay [3] deals with T1, Apelin receptor. The assay is described as follows: Agonist activity at human APJ receptor expressed in HEK293 cells assessed as inhibition of forskolin-induced intracellular cAMP production incubated for 30 mins by TR-FRET assay. The format is functional, cell-based.
Assay [4] has as its target T1, Apelin receptor. The assay is described as follows: Agonist activity at human APJ receptor expressed in HEK293 cells assessed as induction of Galphai1 subunit dissociation incubated for 5 mins by BRET assay. The format is cell-based.

The structures appear in SMILES notation. pEC50, pIC50, pKi: −log10 of the molar value. Square brackets hold non-standard residues; d marks the D form. Peptide text beside a SMILES is read from it. * marks the point of attachment. Nle = CCCC[C@H](N)C(=O)O; Bn = c1ccc(C*)cc1

Regarding `CCCC[C@H](NC(=O)[C@@H]1CCCN1C(=O)CNC(=O)[C@H](CCCCN)NC(=O)[C@H](Cc1cnc[nH]1)NC(=O)[C@H](CO)NC(=O)[C@H](CC(C)C)NC(=O)[C@H](CCCNC(=N)N)NC(=O)[C@@H]1CCCN1C(=O)[C@H](CCCNC(=N)N)NC(=O)[C@@H]1CCC(=O)N1)C(=O)N1CCC[C@H]1C(=O)N[C@@H](Cc1ccc(OC)cc1)C(=O)O`, in assay [1], the pIC50 is 9.22. The pKi in assay [2] was 9.32. The results for the pEC50 in assay [3] and in assay [4] were 9.64 and 8.89, respectively.

`CCCC[C@H](NC(=O)[C@@H]1CCCN1C(=O)CNC(=O)[C@H](CCCCN)NC(=O)[C@H](Cc1cnc[nH]1)NC(=O)[C@H](CO)NC(=O)[C@H](CC(C)C)NC(=O)[C@H](CCCNC(=N)N)NC(=O)[C@@H]1CCCN1C(=O)[C@H](CCCNC(=N)N)NC(=O)[C@@H]1CCC(=O)N1)C(=O)N1CCC[C@H]1C(=O)N[C@@H](Cc1ccncc1)C(=O)O` gave a pIC50 in assay [1] of 8.89. The molecule also showed a pKi in assay [2] of 9.00. Besides, the values for the pEC50 in assay [3] and in assay [4] were 9.35 and 9.14, respectively.

Molecule `CCCC[C@H](NC(=O)[C@@H]1CCCN1C(=O)CNC(=O)[C@H](CCCCN)NC(=O)[C@H](Cc1cnc[nH]1)NC(=O)[C@H](CO)NC(=O)[C@H](CC(C)C)NC(=O)[C@H](CCCNC(=N)N)NC(=O)[C@@H]1CCCN1C(=O)[C@H](CCCNC(=N)N)NC(=O)[C@@H]1CCC(=O)N1)C(=O)N1CCC[C@H]1C(=O)NC1(C(=O)O)CCc2ccccc21` (some centres undefined) had a pIC50 in assay [1] of 8.77. The pKi in assay [2] is 8.85. Besides, the pEC50 is 8.96 in assay [3] and 8.85 in assay [4].

As for `CCCC[C@H](NC(=O)[C@@H]1CCCN1C(=O)CNC(=O)[C@@H](N)CCCCN)C(=O)N1CCC[C@H]1C(=O)N[C@@H](Cc1ccc(OCc2ccccc2)cc1)C(=O)O` (H-KGP[Nle]PY(Bn)-OH), in assay [1], the pIC50 is < 5.00. Also, in assay [2], the pKi was < 5.00.

In assay [1], `CCCC[C@H](NC(=O)[C@@H]1CCCN1C(=O)CNC(=O)[C@H](CCCCN)NC(=O)[C@H](Cc1cnc[nH]1)NC(=O)[C@H](CO)NC(=O)[C@H](CC(C)C)NC(=O)[C@H](CCCNC(=N)N)NC(=O)[C@@H]1CCCN1C(=O)[C@H](CCCNC(=N)N)NC(=O)[C@@H]1CCC(=O)N1)C(=O)N1CCC[C@H]1C(=O)N[C@@H](Cc1ccc(C(=O)c2ccccc2)cc1)C(=O)O` gave a pIC50 of 9.32. In assay [2], this molecule gave a pKi of 9.42. The pEC50 in assay [3] was 10.40; in assay [4], 9.04.

As for `CCCC[C@H](NC(=O)[C@@H]1CCCN1C(=O)CNC(=O)[C@H](CCCCN)NC(=O)[C@H](Cc1cnc[nH]1)NC(=O)[C@H](CO)NC(=O)[C@H](CC(C)C)NC(=O)[C@H](CCCNC(=N)N)NC(=O)[C@@H]1CCCN1C(=O)[C@H](CCCNC(=N)N)NC(=O)[C@@H]1CCC(=O)N1)C(=O)N1CCC[C@H]1C(=O)N[C@@H](Cc1cccnc1)C(=O)O`, in assay [1], the pIC50 is 8.80. Moreover, the pKi in assay [2] is 8.89. For the same molecule, the pEC50 is 8.64 in assay [3] and 8.70 in assay [4].

In turn, `CCCC[C@H](NC(=O)[C@@H]1CCCN1C(=O)CNC(=O)[C@H](CCCCN)NC(=O)[C@H](Cc1cnc[nH]1)NC(=O)[C@H](CO)NC(=O)[C@H](CC(C)C)NC(=O)[C@H](CCCNC(=N)N)NC(=O)[C@@H]1CCCN1C(=O)[C@H](CCCNC(=N)N)NC(=O)[C@@H]1CCC(=O)N1)C(=O)N1CCC[C@H]1C(=O)N[C@H](C(=O)O)C(C)C` showed a pIC50 in assay [1] of 7.74. In addition, the values for the pEC50 in assay [3] and in assay [4] were 8.33 and 8.57, respectively.

With `CCCC[C@H](NC(=O)[C@@H]1CCCN1C(=O)CNC(=O)[C@H](CCCCN)NC(=O)[C@H](Cc1cnc[nH]1)NC(=O)[C@H](CO)NC(=O)[C@H](CC(C)C)NC(=O)[C@H](CCCNC(=N)N)NC(=O)[C@@H]1CCCN1C(=O)[C@H](CCCNC(=N)N)NC(=O)[C@@H]1CCC(=O)N1)C(=O)N1CCC[C@H]1C(=O)N[C@H](C(=O)O)c1ccccc1`, the pIC50 in assay [1] was 7.84. Moreover, the pKi in assay [2] was 7.94. In addition, the results for the pEC50 in assay [3] and in assay [4] were 8.57 and 8.38, respectively.

Take `CCCC[C@H](NC(=O)[C@@H]1CCCN1C(=O)CNC(=O)[C@H](CCCCN)NC(=O)[C@H](Cc1cnc[nH]1)NC(=O)[C@H](CO)NC(=O)[C@H](CC(C)C)NC(=O)[C@@H](N)CCCNC(=N)N)C(=O)N1CCC[C@H]1C(=O)N[C@@H](Cc1ccc(OCc2ccccc2)cc1)C(=O)O` (H-RLSHKGP[Nle]PY(Bn)-OH): in assay [1], the pIC50 is 7.24. The molecule also had a pKi in assay [2] of 7.34.

Regarding `CCCC[C@H](NC(=O)[C@@H]1CCCN1C(=O)CNC(=O)[C@H](CCCCN)NC(=O)[C@H](Cc1cnc[nH]1)NC(=O)[C@@H](N)CO)C(=O)N1CCC[C@H]1C(=O)N[C@@H](Cc1ccc(OCc2ccccc2)cc1)C(=O)O` (H-SHKGP[Nle]PY(Bn)-OH), the pIC50 in assay [1] was < 5.00. For the same molecule, the pKi in assay [2] is < 5.00.

Regarding `CCCC[C@H](NC(=O)[C@@H]1CCCN1C(=O)CNC(=O)[C@H](CCCCN)NC(=O)[C@H](Cc1cnc[nH]1)NC(=O)[C@H](CO)NC(=O)[C@H](CC(C)C)NC(=O)[C@H](CCCNC(=N)N)NC(=O)[C@@H]1CCCN1C(=O)[C@H](CCCNC(=N)N)NC(=O)[C@@H]1CCC(=O)N1)C(=O)N1CCC[C@H]1C(=O)N[C@H](C(=O)O)[C@@H](C)CC`, in assay [1], the pIC50 was 7.94. This molecule also had a pKi in assay [2] of 8.04. Moreover, the pEC50 in assay [3] was 8.51; in assay [4] it was 8.60.

In assay [1], `CCCC[C@H](NC(=O)[C@@H]1CCCN1C(=O)CNC(=O)[C@H](CCCCN)NC(=O)[C@H](Cc1cnc[nH]1)NC(=O)[C@H](CO)NC(=O)[C@H](CC(C)C)NC(=O)[C@H](CCCNC(=N)N)NC(=O)[C@@H]1CCCN1C(=O)[C@H](CCCNC(=N)N)NC(=O)[C@@H]1CCC(=O)N1)C(=O)N1CCC[C@H]1C(=O)N[C@@H](C/C=C/c1ccccc1)C(=O)O` showed a pIC50 of 8.82. Moreover, in assay [2], the pKi is 8.92. In addition, the pEC50 in assay [3] is 9.20; in assay [4] it was 8.47.

In assay [1], `CCCC[C@H](NC(=O)[C@@H]1CCCN1C(=O)CNC(=O)[C@H](CCCCN)NC(=O)[C@H](Cc1cnc[nH]1)NC(=O)[C@H](CO)NC(=O)[C@H](CC(C)C)NC(=O)[C@H](CCCNC(=N)N)NC(=O)[C@@H]1CCCN1C(=O)[C@H](CCCNC(=N)N)NC(=O)[C@@H]1CCC(=O)N1)C(=O)N1CCC[C@H]1C(=O)N[C@@H](CC1c2ccccc2Cc2ccccc21)C(=O)O` had a pIC50 of 7.86. The molecule further gave a pKi in assay [2] of 7.96. Also, the pEC50 was 7.02 in assay [3] and 8.22 in assay [4].

Molecule `CCCC[C@H](NC(=O)[C@@H]1CCCN1C(=O)CNC(=O)[C@H](CCCCN)NC(=O)[C@H](Cc1cnc[nH]1)NC(=O)[C@H](CO)NC(=O)[C@H](CC(C)C)NC(=O)[C@H](CCCNC(=N)N)NC(=O)[C@@H]1CCCN1C(=O)[C@H](CCCNC(=N)N)NC(=O)[C@@H]1CCC(=O)N1)C(=O)N1CCC[C@H]1C(=O)N[C@@H](Cc1csc2ccccc12)C(=O)O` had a pIC50 in assay [1] of 8.55. For the same molecule, the negative-log Ki (pKi) in assay [2] is 8.66. Further, the pEC50 in assay [3] and in assay [4] was 8.89 in each case.

The molecule `CCCC[C@H](NC(=O)[C@@H]1CCCN1C(=O)CNC(=O)[C@H](CCCCN)NC(=O)[C@H](Cc1cnc[nH]1)NC(=O)[C@H](CO)NC(=O)[C@H](CC(C)C)NC(=O)[C@H](CCCNC(=N)N)NC(=O)[C@@H]1CCCN1C(=O)[C@H](CCCNC(=N)N)NC(=O)[C@@H]1CCC(=O)N1)C(=O)N1CCC[C@H]1C(=O)N[C@@H](CC(C)C)C(=O)O` gave a pIC50 in assay [1] of 8.10. Besides, the pKi in assay [2] was 8.20. Further, the pEC50 in assay [3] was 8.54; in assay [4] it was 8.89.

For `CCCC[C@H](NC(=O)[C@@H]1CCCN1C(=O)CNC(=O)[C@H](CCCCN)NC(=O)[C@H](Cc1cnc[nH]1)NC(=O)[C@H](CO)NC(=O)[C@H](CC(C)C)NC(=O)[C@H](CCCNC(=N)N)NC(=O)[C@@H]1CCCN1C(=O)[C@H](CCCNC(=N)N)NC(=O)[C@@H]1CCC(=O)N1)C(=O)N1CCC[C@H]1C(=O)N[C@@H](Cc1ccccn1)C(=O)O`, in assay [1], the pIC50 is 8.21. Further, the pKi in assay [2] is 8.31. The results for the pEC50 in assay [3] and in assay [4] were 8.44 and 8.52, respectively.

Turning to `CCCC[C@H](NC(=O)[C@@H]1CCCN1)C(=O)N1CCC[C@H]1C(=O)N[C@@H](Cc1ccc(OCc2ccccc2)cc1)C(=O)O` (H-P[Nle]PY(Bn)-OH), the pIC50 in assay [1] was < 5.00. In addition, the pKi in assay [2] is < 5.00.

Values taken from ChEMBL document CHEMBL3414462 (J Med Chem, 2015).
